Consider six compounds from patent US6936585B2, “Corticotropin releasing factor 2 receptor agonists” (priority 2002, dated 2005).

Peptide text beside a SMILES is read from it. Some results are limits rather than exact numbers.

In test [1] the target is T1, CRF2R (Homo sapiens, UniProt Q13324).
T1 sequence (Q13324 1-411): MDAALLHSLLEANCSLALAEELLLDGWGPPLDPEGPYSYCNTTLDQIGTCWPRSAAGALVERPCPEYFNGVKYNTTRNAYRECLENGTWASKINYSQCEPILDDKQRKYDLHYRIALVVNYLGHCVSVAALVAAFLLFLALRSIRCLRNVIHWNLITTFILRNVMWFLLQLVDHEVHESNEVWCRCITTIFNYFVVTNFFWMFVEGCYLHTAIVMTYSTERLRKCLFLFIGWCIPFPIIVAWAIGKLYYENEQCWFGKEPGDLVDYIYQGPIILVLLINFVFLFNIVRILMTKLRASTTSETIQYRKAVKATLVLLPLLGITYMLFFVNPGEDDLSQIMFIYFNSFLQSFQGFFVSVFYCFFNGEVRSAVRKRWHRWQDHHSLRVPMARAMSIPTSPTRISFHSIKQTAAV
The experiment in a line: CRF2R agonist activation (EC50 / Emax), called comparative CRF binding. The following applies: for Emax: read-out: CRF2R Emax; for EC50: read-out: CRF2R EC50. The test is classed as cell-based. The method, boiled down: (§1)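 Cells expressing human CRF1R or CRF2R are exposed to peptide or vehicle control, and receptor activation is read as cAMP induction, measured in cell lysates or via a CRE-linked reporter gene.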

Test [2] has as its target T2, CRF1R (Homo sapiens, UniProt P34998).
T2 sequence (P34998 24-415): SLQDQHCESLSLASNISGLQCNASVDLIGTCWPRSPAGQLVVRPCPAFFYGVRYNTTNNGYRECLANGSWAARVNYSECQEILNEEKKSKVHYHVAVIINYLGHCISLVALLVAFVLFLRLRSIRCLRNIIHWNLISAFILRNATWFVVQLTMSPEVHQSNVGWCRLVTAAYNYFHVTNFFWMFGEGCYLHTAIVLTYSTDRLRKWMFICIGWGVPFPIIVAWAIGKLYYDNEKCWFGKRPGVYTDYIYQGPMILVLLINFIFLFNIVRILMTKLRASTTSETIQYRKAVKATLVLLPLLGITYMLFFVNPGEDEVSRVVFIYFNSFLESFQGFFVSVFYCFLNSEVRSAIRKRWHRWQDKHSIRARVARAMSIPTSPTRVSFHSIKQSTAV
The experiment in a line: CRF1R agonist activation (EC50 / Emax), called comparative CRF binding. The format is cell-based. Particulars: for Emax: read-out: CRF1R Emax; for EC50: read-out: CRF1R EC50. The method, boiled down: as §1

In general, Emax refers to the greatest response seen or fitted, relative to the assay's reference. For `CC[C@H](C)[C@H](N)C(=O)N[C@H](C(=O)N[C@@H](CC(C)C)C(=O)N[C@@H](CO)C(=O)N[C@@H](CC(C)C)C(=O)N[C@@H](CC(=O)O)C(=O)N[C@H](C(=O)N1CCC[C@H]1C(=O)N[C@H](C(=O)NCC(=O)N[C@@H](CC(C)C)C(=O)N[C@@H](CC(C)C)C(=O)N[C@@H](CCC(N)=O)C(=O)N[C@H](C(=O)N[C@@H](CC(C)C)C(=O)N[C@@H](CC(C)C)C(=O)N[C@@H](CCC(=O)O)C(=O)N[C@@H](CCC(N)=O)C(=O)N[C@@H](CCC(=O)O)C(=O)N[C@@H](CCCCN)C(=O)N[C@@H](CCC(N)=O)C(=O)N[C@@H](CCC(=O)O)C(=O)N[C@@H](C)C(=O)N[C@@H](C)C(=O)N[C@@H](CCCNC(=N)N)C(=O)N[C@@H](CCC(=O)O)C(=O)N[C@@H](CCC(N)=O)C(=O)N[C@@H](C)C(=O)N[C@H](C(=O)N[C@H](C(=O)N[C@@H](CC(N)=O)C(=O)N[C@@H](C)C(=O)N[C@@H](CCCNC(=N)N)C(=O)N[C@H](C(=O)N[C@@H](CC(C)C)C(=O)N[C@@H](C)C(=O)N[C@@H](CCCNC(=N)N)C(=O)N[C@H](C(N)=O)C(C)C)[C@@H](C)CC)[C@@H](C)O)[C@@H](C)O)[C@@H](C)CC)[C@@H](C)CC)C(C)C)C(C)C` [compound 125] (H-IVLSLDVPIGLLQILLEQEKQEAAREQATTNARILARV-NH2; N-terminus assumed), the values for the Emax in test [1] and in test [2] were 99% and 9%, respectively.
What is called EC50 is the concentration that produces a half-maximal response. Take `CC[C@H](C)[C@H](N)C(=O)N[C@H](C(=O)N[C@@H](CC(C)C)C(=O)N[C@@H](CO)C(=O)N[C@@H](CC(C)C)C(=O)N[C@@H](CC(=O)O)C(=O)N[C@H](C(=O)N1CCC[C@H]1C(=O)N[C@H](C(=O)NCC(=O)N[C@@H](CC(C)C)C(=O)N[C@@H](CC(C)C)C(=O)N[C@@H](CCC(N)=O)C(=O)N[C@H](C(=O)N[C@@H](CC(C)C)C(=O)N[C@@H](CC(C)C)C(=O)N[C@@H](CCC(=O)O)C(=O)N[C@@H](CCC(N)=O)C(=O)N[C@H](C(=O)N[C@@H](CCCNC(=N)N)C(=O)N[C@@H](C)C(=O)N[C@@H](CC(=O)O)C(=O)N[C@@H](C)C(=O)N[C@@H](C)C(=O)N[C@@H](CCCNC(=N)N)C(=O)N[C@@H](CCC(=O)O)C(=O)N[C@@H](CCC(N)=O)C(=O)N[C@@H](C)C(=O)N[C@H](C(=O)N[C@H](C(=O)N[C@@H](CC(N)=O)C(=O)N[C@@H](C)C(=O)N[C@@H](CCCNC(=N)N)C(=O)N[C@H](C(=O)N[C@@H](CC(C)C)C(=O)N[C@@H](C)C(=O)N[C@@H](CCCNC(=N)N)C(=O)N[C@H](C(N)=O)C(C)C)[C@@H](C)CC)[C@@H](C)O)[C@@H](C)O)[C@@H](C)O)[C@@H](C)CC)[C@@H](C)CC)C(C)C)C(C)C` [compound 126] (H-IVLSLDVPIGLLQILLEQTRADAAREQATTNARILARV-NH2; N-terminus assumed): in test [1], the EC50 amounted to 13 nM and the Emax stood at 91%. In test [2], the EC50 is more than 100 nM and the Emax was 7%.
As to `CC[C@H](C)[C@H](N)C(=O)N[C@H](C(=O)N[C@@H](CC(C)C)C(=O)N[C@@H](CO)C(=O)N[C@@H](CC(C)C)C(=O)N[C@@H](CC(=O)O)C(=O)N[C@H](C(=O)N1CCC[C@H]1C(=O)N[C@H](C(=O)NCC(=O)N[C@@H](CC(C)C)C(=O)N[C@@H](CC(C)C)C(=O)N[C@@H](CCC(N)=O)C(=O)N[C@H](C(=O)N[C@@H](CC(C)C)C(=O)N[C@@H](CC(C)C)C(=O)N[C@@H](CCC(=O)O)C(=O)N[C@@H](CCC(N)=O)C(=O)N[C@H](C(=O)N[C@@H](CCCNC(=N)N)C(=O)N[C@@H](C)C(=O)N[C@@H](CCCNC(=N)N)C(=O)N[C@@H](C)C(=O)N[C@@H](C)C(=O)N[C@@H](CCCNC(=N)N)C(=O)N[C@@H](CCC(=O)O)C(=O)N[C@@H](CCC(N)=O)C(=O)N[C@@H](C)C(=O)N[C@H](C(=O)N[C@H](C(=O)N[C@@H](CC(N)=O)C(=O)N[C@@H](C)C(=O)N[C@@H](CCCNC(=N)N)C(=O)N[C@H](C(=O)N[C@@H](CC(C)C)C(=O)N[C@@H](C)C(=O)N[C@@H](CCCNC(=N)N)C(=O)N[C@H](C(N)=O)C(C)C)[C@@H](C)CC)[C@@H](C)O)[C@@H](C)O)[C@@H](C)O)[C@@H](C)CC)[C@@H](C)CC)C(C)C)C(C)C` [compound 128] (H-IVLSLDVPIGLLQILLEQTRARAAREQATTNARILARV-NH2; N-terminus assumed), the EC50 in test [1] was 2.85 nM; in test [2], more than 100 nM. For the same compound, the Emax came to 98% in test [1] and 8% in test [2].
For `CC[C@H](C)[C@H](N)C(=O)N[C@H](C(=O)N[C@@H](CC(C)C)C(=O)N[C@@H](CO)C(=O)N[C@@H](CC(C)C)C(=O)N[C@@H](CC(=O)O)C(=O)N[C@H](C(=O)N1CCC[C@H]1C(=O)N[C@H](C(=O)NCC(=O)N[C@@H](CC(C)C)C(=O)N[C@@H](CC(C)C)C(=O)N[C@@H](CCC(N)=O)C(=O)N[C@H](C(=O)N[C@@H](CC(C)C)C(=O)N[C@@H](CC(C)C)C(=O)N[C@@H](CCC(=O)O)C(=O)N[C@@H](CCC(N)=O)C(=O)N[C@@H](C)C(=O)N[C@@H](CCCNC(=N)N)C(=O)N[C@@H](C)C(=O)N[C@@H](CC(=O)O)C(=O)N[C@@H](C)C(=O)N[C@@H](C)C(=O)N[C@@H](CCCNC(=N)N)C(=O)N[C@@H](CCC(=O)O)C(=O)N[C@@H](CCC(N)=O)C(=O)N[C@@H](C)C(=O)N[C@H](C(=O)N[C@H](C(=O)N[C@@H](CC(N)=O)C(=O)N[C@@H](C)C(=O)N[C@@H](CCCNC(=N)N)C(=O)N[C@H](C(=O)N[C@@H](CC(C)C)C(=O)N[C@@H](C)C(=O)N[C@@H](CCCNC(=N)N)C(=O)N[C@H](C(N)=O)C(C)C)[C@@H](C)CC)[C@@H](C)O)[C@@H](C)O)[C@@H](C)CC)[C@@H](C)CC)C(C)C)C(C)C` [compound 130] (H-IVLSLDVPIGLLQILLEQARADAAREQATTNARILARV-NH2; N-terminus assumed), in that order: 8.57 nM, more than 100 nM, 92% and 9%.
In the same order, the values of `CC[C@H](C)[C@H](N)C(=O)N[C@H](C(=O)N[C@@H](CC(C)C)C(=O)N[C@@H](CO)C(=O)N[C@@H](CC(C)C)C(=O)N[C@@H](CC(=O)O)C(=O)N[C@H](C(=O)N1CCC[C@H]1C(=O)N[C@H](C(=O)NCC(=O)N[C@@H](CC(C)C)C(=O)N[C@@H](CC(C)C)C(=O)N[C@@H](CCC(N)=O)C(=O)N[C@H](C(=O)N[C@@H](CC(C)C)C(=O)N[C@@H](CC(C)C)C(=O)N[C@@H](CCC(=O)O)C(=O)N[C@@H](CCC(N)=O)C(=O)N[C@@H](C)C(=O)N[C@@H](CCCCN)C(=O)N[C@@H](C)C(=O)N[C@@H](CC(=O)O)C(=O)N[C@@H](C)C(=O)N[C@@H](C)C(=O)N[C@@H](CCCNC(=N)N)C(=O)N[C@@H](CCC(=O)O)C(=O)N[C@@H](CCC(N)=O)C(=O)N[C@@H](C)C(=O)N[C@H](C(=O)N[C@H](C(=O)N[C@@H](CC(N)=O)C(=O)N[C@@H](C)C(=O)N[C@@H](CCCNC(=N)N)C(=O)N[C@H](C(=O)N[C@@H](CC(C)C)C(=O)N[C@@H](C)C(=O)N[C@@H](CCCNC(=N)N)C(=O)N[C@H](C(N)=O)C(C)C)[C@@H](C)CC)[C@@H](C)O)[C@@H](C)O)[C@@H](C)CC)[C@@H](C)CC)C(C)C)C(C)C` [compound 131] (H-IVLSLDVPIGLLQILLEQAKADAAREQATTNARILARV-NH2; N-terminus assumed) are 5.25 nM, more than 100 nM, 91% and 8%.
For `CC[C@H](C)[C@H](N)C(=O)N[C@H](C(=O)N[C@@H](CC(C)C)C(=O)N[C@@H](CO)C(=O)N[C@@H](CC(C)C)C(=O)N[C@@H](CC(=O)O)C(=O)N[C@H](C(=O)N1CCC[C@H]1C(=O)N[C@H](C(=O)NCC(=O)N[C@@H](CC(C)C)C(=O)N[C@@H](CC(C)C)C(=O)N[C@@H](CCC(N)=O)C(=O)N[C@H](C(=O)N[C@@H](CC(C)C)C(=O)N[C@@H](CC(C)C)C(=O)N[C@@H](CCC(=O)O)C(=O)N[C@@H](CCC(N)=O)C(=O)N[C@@H](CCC(=O)O)C(=O)N[C@@H](CCCCN)C(=O)N[C@@H](CCC(=O)O)C(=O)N[C@@H](CCCCN)C(=O)N[C@@H](CCCCN)C(=O)N[C@@H](CCCNC(=N)N)C(=O)N[C@@H](CCCCN)C(=O)N[C@@H](CCC(=O)O)C(=O)N[C@H](C(=O)N[C@@H](CC(N)=O)C(=O)N[C@@H](C)C(=O)N[C@@H](CCCNC(=N)N)C(=O)N[C@H](C(=O)N[C@@H](CC(C)C)C(=O)N[C@@H](C)C(=O)N[C@@H](CCCNC(=N)N)C(=O)N[C@H](C(N)=O)C(C)C)[C@@H](C)CC)[C@@H](C)O)[C@@H](C)CC)[C@@H](C)CC)C(C)C)C(C)C` [compound 132] (H-IVLSLDVPIGLLQILLEQEKEKKRKETNARILARV-NH2; N-terminus assumed), in that order: 7.53 nM, more than 100 nM, 88% and 8%.
